Measured values published in patent US20230295234A1, “ANTIMICROBIAL PEPTIDOMIMETICS” (SPEXIS AG, priority 2020, published 2023).
Like-named read-outs stand apart in the source and are kept apart here. Peptide text beside a SMILES is read from it.

Tests used:
[1] = test system: Klebsiella pneumoniae SSI3010
How it was run: (§1)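 Activity is measured against peptides serially diluted two-fold in water with 0.002% final Polysorbate 80. The cells are in cation-adjusted MHII broth at roughly 5×10^5 CFU/mL, prepared from a 0.5 McFarland suspension in 0.85% NaCl.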

[2] = test system: Escherichia coli ATCC 25922
How it was run: as §1

[3] = test system: Escherichia coli MCR-1 Af 45
How it was run: as §1

[4] = test system: human red blood cells (hRBC); test: Hemolysis of human red blood cells; type: cell-based
How it was run: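 PBS-washed human red blood cells (20% v/v) were incubated with peptide at 200 μg/mL for 1 h at 37 °C with shaking. Supernatant OD was read at 540 nm after 8-fold dilution. Hemolysis is expressed as percent of the water control.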

[5] = Mueller-Hinton broth II, 18-20 hours at 35° C.

CC[C@H](C)[C@H](NC(=O)[C@@H](NC(=O)[C@@H]1CCCN1C(=O)[C@@H](NC(=O)[C@@H]1C[C@@H](N)CN1C(=O)[C@H](CCCCN)NC(=O)[C@@H](N)CCCCN)C(C)C)[C@@H](C)CC)C(=O)N[C@@H](Cc1ccc(O)cc1)C(=O)N[C@H]1CCNC(=O)CC[C@@H](C(=O)N[C@@H](CCN)C(=O)N[C@@H](CCCNC(=N)N)C(=O)N[C@@H](Cc2ccc(O)cc2)C(=O)O)NC(=O)[C@H](CCCCN)NC(=O)[C@@H](CCN)NC(=O)[C@H]([C@@H](C)O)NC(=O)[C@H](CCN)NC(=O)[C@H](CCCNC(=N)N)NC(=O)[C@H](CC(N)=O)NC1=O [Example 131, Lys-Lys-Pro((4R)NH2)-Val-Pro-Ile-Ile-Tyr-Dab-Asn-Arg-Dab-Thr-^DDab-Lys-Glu-Dab-Arg-Tyr] (HELM PEPTIDE1{K.K.[N[C@@H]1C[C@@H](C(=O)[*:2])N([*:1])C1].V.P.I.I.Y.[Dab].N.R.[Dab].T.[NCC[C@@H](N[*:1])C(=O)[*:2]].K.E.[Dab].R.Y}$PEPTIDE1,PEPTIDE1,9:R3-16:R3$$$V2.0)
Klebsiella pneumoniae SSI3010 MIC ([1]; SSI3010): 0.25 µg/mL | Escherichia coli ATCC 25922 MIC ([2]; ATCC 25922): 0.125 µg/mL | Escherichia coli MCR-1 Af 45 MIC ([3]; MCR-1 Af 45): 0.125 µg/mL | Hemolysis at 0.2 g/L ([4]; red cells of human, 1 h): 0%

CC[C@H](C)[C@H](NC(=O)[C@@H](NC(=O)[C@@H]1CCCN1C(=O)[C@@H](NC(=O)[C@@H]1C[C@@H](N)CN1C(=O)[C@H](CCCCN)NC(=O)[C@@H](N)CCCCN)C(C)C)[C@@H](C)CC)C(=O)N[C@@H](Cc1ccc(O)cc1)C(=O)N[C@H]1CC(=O)NCC[C@@H](C(=O)N[C@@H](CCN)C(=O)N[C@@H](CCCNC(=N)N)C(=O)N[C@@H](Cc2ccc(O)cc2)C(=O)O)NC(=O)[C@H](CCCCN)NC(=O)[C@@H](CCN)NC(=O)[C@H]([C@@H](C)O)NC(=O)[C@H](CCN)NC(=O)[C@H](CCCNC(=N)N)NC(=O)[C@H](CC(N)=O)NC1=O [Example 132] (HELM PEPTIDE1{K.K.[N[C@@H]1C[C@@H](C(=O)[*:2])N([*:1])C1].V.P.I.I.Y.D.N.R.[Dab].T.[NCC[C@@H](N[*:1])C(=O)[*:2]].K.[Dab].[Dab].R.Y}$PEPTIDE1,PEPTIDE1,9:R3-16:R3$$$V2.0)
Klebsiella pneumoniae SSI3010 MIC ([1]; SSI3010): 0.0625 µg/mL | Escherichia coli ATCC 25922 MIC ([2]; ATCC 25922): 0.0625 µg/mL | Escherichia coli MCR-1 Af 45 MIC ([3]; MCR-1 Af 45): 0.0625 µg/mL | Hemolysis at 0.2 g/L ([4]; red cells of human, 1 h): 0%

CC[C@H](C)[C@H](NC(=O)[C@@H](NC(=O)[C@@H]1CCCN1C(=O)[C@@H](NC(=O)[C@@H]1C[C@@H](N)CN1C(=O)[C@H](CCCCN)NC(=O)[C@@H](N)CCCCN)C(C)C)[C@@H](C)CC)C(=O)N[C@@H](Cc1ccc(O)cc1)C(=O)N[C@H]1CCC(=O)NCC[C@@H](C(=O)N[C@@H](CCN)C(=O)N[C@@H](CCCNC(=N)N)C(=O)N[C@@H](Cc2ccc(O)cc2)C(=O)O)NC(=O)[C@H](CCCCN)NC(=O)[C@@H](CCN)NC(=O)[C@H]([C@@H](C)O)NC(=O)[C@H](CCN)NC(=O)[C@H](CCCNC(=N)N)NC(=O)[C@H](CC(N)=O)NC1=O [Example 133] (HELM PEPTIDE1{K.K.[N[C@@H]1C[C@@H](C(=O)[*:2])N([*:1])C1].V.P.I.I.Y.E.N.R.[Dab].T.[NCC[C@@H](N[*:1])C(=O)[*:2]].K.[Dab].[Dab].R.Y}$PEPTIDE1,PEPTIDE1,9:R3-16:R3$$$V2.0)
Klebsiella pneumoniae SSI3010 MIC ([1]; SSI3010): 0.25 µg/mL | Escherichia coli ATCC 25922 MIC ([2]; ATCC 25922): 0.25 µg/mL | Escherichia coli MCR-1 Af 45 MIC ([3]; MCR-1 Af 45): 0.25 µg/mL | Hemolysis at 0.2 g/L ([4]; red cells of human, 1 h): 0%

CCCC[C@H](NC(=O)[C@H](CCCNC(=N)N)NC(=O)[C@H](CCN)NC(=O)[C@@H]1CSSC[C@H](NC(=O)[C@H](Cc2ccc(O)cc2)NC(=O)[C@@H](NC(=O)[C@@H](NC(=O)[C@@H]2CCCN2C(=O)[C@@H](N)C(C)C)[C@@H](C)CC)[C@@H](C)CC)C(=O)N[C@@H](CC(N)=O)C(=O)N[C@@H](CCCNC(=N)N)C(=O)N[C@@H](CCCNC(=N)N)C(=O)N[C@@H]([C@@H](C)O)C(=O)N[C@H](CCN)C(=O)N[C@@H](CCCCN)C(=O)N1)C(=O)O [Example 134] (HELM PEPTIDE1{V.P.I.I.Y.C.N.R.R.T.[NCC[C@@H](N[*:1])C(=O)[*:2]].K.C.[Dab].R.[Nle]}$PEPTIDE1,PEPTIDE1,6:R3-13:R3$$$V2.0)
Klebsiella pneumoniae SSI3010 MIC ([1]; SSI3010): 0.125 µg/mL | Escherichia coli ATCC 25922 MIC ([2]; ATCC 25922): 0.0625 µg/mL | Escherichia coli MCR-1 Af 45 MIC [3, 5]: 0.0625 µg/mL | Hemolysis at 0.2 g/L ([4]; red cells of human, 1 h): 0%

CCCC[C@H](NC(=O)[C@H](CCCNC(=N)N)NC(=O)[C@H](CCN)NC(=O)[C@@H]1CSSC(C)(C)[C@H](NC(=O)[C@H](Cc2ccc(O)cc2)NC(=O)[C@@H](NC(=O)[C@@H](NC(=O)[C@@H]2C[C@@H](N)CN2C(=O)[C@@H](N)C(C)C)[C@@H](C)CC)[C@@H](C)CC)C(=O)N[C@@H](CC(N)=O)C(=O)N[C@@H](CCCNC(=N)N)C(=O)N[C@@H](CCCNC(=N)N)C(=O)N[C@@H]([C@@H](C)O)C(=O)N[C@H](CCN)C(=O)N[C@@H](CCCCN)C(=O)N1)C(=O)O [Example 135] (HELM PEPTIDE1{V.[N[C@@H]1C[C@@H](C(=O)[*:2])N([*:1])C1].I.I.Y.[Pen].N.R.R.T.[NCC[C@@H](N[*:1])C(=O)[*:2]].K.C.[Dab].R.[Nle]}$PEPTIDE1,PEPTIDE1,6:R3-13:R3$$$V2.0)
Klebsiella pneumoniae SSI3010 MIC [1, 5]: 0.125 µg/mL | Escherichia coli ATCC 25922 MIC [2, 5]: 0.0625 µg/mL | Escherichia coli MCR-1 Af 45 MIC [3, 5]: 0.0625 µg/mL | Hemolysis at 0.2 g/L ([4]; 20% hRBC, 1 h at 37° C.): 0%

CCCC[C@H](NC(=O)[C@H](CCCNC(=N)N)NC(=O)[C@H](CCN)NC(=O)[C@@H]1CSSC(C)(C)[C@H](NC(=O)[C@H](Cc2ccc(O)cc2)NC(=O)[C@@H](NC(=O)[C@@H](NC(=O)[C@@H]2C[C@@H](N)CN2C(=O)[C@@H](N)C(C)C)[C@@H](C)CC)[C@@H](C)CC)C(=O)N[C@@H](CC(N)=O)C(=O)N[C@@H](CCCNC(=N)N)C(=O)N[C@@H](CCN)C(=O)N[C@@H]([C@@H](C)O)C(=O)N[C@H](CCN)C(=O)N[C@@H](CCCCN)C(=O)N1)C(=O)O [Example 136] (HELM PEPTIDE1{V.[N[C@@H]1C[C@@H](C(=O)[*:2])N([*:1])C1].I.I.Y.[Pen].N.R.[Dab].T.[NCC[C@@H](N[*:1])C(=O)[*:2]].K.C.[Dab].R.[Nle]}$PEPTIDE1,PEPTIDE1,6:R3-13:R3$$$V2.0)
Klebsiella pneumoniae SSI3010 MIC ([1]; SSI3010): 0.125 µg/mL | Escherichia coli ATCC 25922 MIC ([2]; ATCC 25922): 0.125 µg/mL | Escherichia coli MCR-1 Af 45 MIC [3, 5]: 0.0625 µg/mL | Hemolysis at 0.2 g/L ([4]; red cells of human, 1 h): 0%

CCCC[C@H](NC(=O)[C@H](CCCNC(=N)N)NC(=O)[C@H](CCN)NC(=O)[C@@H]1CSSC(C)(C)[C@H](NC(=O)[C@H](Cc2ccc(O)cc2)NC(=O)[C@@H](NC(=O)[C@@H](NC(=O)CN(CCN)C(=O)[C@@H](N)C(C)C)[C@@H](C)CC)[C@@H](C)CC)C(=O)N[C@@H](CC(N)=O)C(=O)N[C@@H](CCCNC(=N)N)C(=O)N[C@@H](CCN)C(=O)N[C@@H]([C@@H](C)O)C(=O)N[C@H](CCN)C(=O)N[C@@H](CCCCN)C(=O)N1)C(=O)O [Example 137] (HELM PEPTIDE1{V.[NCCN(CC(=O)[*:2])[*:1]].I.I.Y.[Pen].N.R.[Dab].T.[NCC[C@@H](N[*:1])C(=O)[*:2]].K.C.[Dab].R.[Nle]}$PEPTIDE1,PEPTIDE1,6:R3-13:R3$$$V2.0)
Klebsiella pneumoniae SSI3010 MIC ([1]; SSI3010): 0.25 µg/mL | Escherichia coli ATCC 25922 MIC ([2]; ATCC 25922): 0.125 µg/mL | Escherichia coli MCR-1 Af 45 MIC [3, 5]: 0.0625 µg/mL | Hemolysis at 0.2 g/L ([4]; red cells of human, 1 h): 0%

CCCC[C@H](NC(=O)[C@H](CCCNC(=N)N)NC(=O)[C@H](CCN)NC(=O)[C@@H]1CSSC(C)(C)[C@H](NC(=O)[C@H](Cc2ccc(O)cc2)NC(=O)[C@@H](NC(=O)[C@@H](NC(=O)[C@@H]2C[C@@H](N)CN2C(=O)[C@@H](N)C(C)C)[C@@H](C)CC)[C@@H](C)O)C(=O)N[C@@H](CC(N)=O)C(=O)N[C@@H](CCCNC(=N)N)C(=O)N[C@@H](CCN)C(=O)N[C@@H]([C@@H](C)O)C(=O)N[C@H](CCN)C(=O)N[C@@H](CCCCN)C(=O)N1)C(=O)O [Example 138] (HELM PEPTIDE1{V.[N[C@@H]1C[C@@H](C(=O)[*:2])N([*:1])C1].I.T.Y.[Pen].N.R.[Dab].T.[NCC[C@@H](N[*:1])C(=O)[*:2]].K.C.[Dab].R.[Nle]}$PEPTIDE1,PEPTIDE1,6:R3-13:R3$$$V2.0)
Klebsiella pneumoniae SSI3010 MIC ([1]; SSI3010): 0.25 µg/mL | Escherichia coli ATCC 25922 MIC ([2]; ATCC 25922): 0.125 µg/mL | Escherichia coli MCR-1 Af 45 MIC [3, 5]: 0.0625 µg/mL | Hemolysis at 0.2 g/L ([4]; red cells of human, 1 h): 0%

CC[C@H](C)[C@H](NC(=O)[C@@H](NC(=O)[C@@H]1CCCN1C(=O)[C@@H](N)C(C)C)[C@@H](C)CC)C(=O)N[C@@H](Cc1ccc(O)cc1)C(=O)N[C@H]1CSSC[C@@H](C(=O)N[C@@H](CCN)C(=O)N[C@@H](CCCNC(=N)N)C(=O)N[C@@H](CC2CCCCC2)C(=O)O)NC(=O)[C@H](CCCCN)NC(=O)[C@@H](CCN)NC(=O)[C@H]([C@@H](C)O)NC(=O)[C@H](CCN)NC(=O)[C@H](CCCNC(=N)N)NC(=O)[C@H](CC(N)=O)NC1=O [Example 139] (HELM PEPTIDE1{V.P.I.I.Y.C.N.R.[Dab].T.[NCC[C@@H](N[*:1])C(=O)[*:2]].K.C.[Dab].R.[Cha]}$PEPTIDE1,PEPTIDE1,6:R3-13:R3$$$V2.0)
Klebsiella pneumoniae SSI3010 MIC ([1]; SSI3010): 0.125 µg/mL | Escherichia coli ATCC 25922 MIC ([2]; ATCC 25922): 0.0625 µg/mL | Escherichia coli MCR-1 Af 45 MIC [3, 5]: 0.0625 µg/mL | Hemolysis at 0.2 g/L ([4]; red cells of human, 1 h): 0%
